One data set has as its target hERG channel (Homo sapiens (Human), UniProt Q12809). Description: hERG channel inhibition assay. Type of data set: cell-based. Particulars: patch-clamp; for IC50: CHO hERG cells; for IC20: human, CHO cells stably expressing hERG. How it is done: hERG Channel Inhibition Assay
The hERG K^+ channels were cloned in humans and stably expressed in a CHO (Chinese hamster ovary) cell line. CHOhERG cells were used for patch-clamp (voltage-clamp, whole-cell) experiments. Cells were stimulated by a voltage pattern to activate hERG channels and conduct IKhERG Currents (rapid delayed outward rectifier potassium current of the hERG channel). After the cells were stabilized for a few minutes, the amplitude and kinetics of IKhERG were recorded at a stimulation frequency of 0.1 Hz (6 bpm). Thereafter, the test compound was added to the preparation at increasing concentrations. For each concentration, an attempt was made to reach a steady-state effect, usually, this was achieved within 3-10 min at which time the next highest concentration was applied. The amplitude and kinetics of IKhERG are recorded in each concentration of the drug which were compared to the control values (taken as 100%). (references: Redfern WS, Carlsson L, Davis A S, Lynch W G, MacKenzie I, Palethorpe S, Siegl P K, Strang I, Sullivan A T, Wallis R, Camm A J, Hammond T G. 2003; Relationships between preclinical cardiac electrophysiology, clinical QT interval prolongation and torsade de pointes for a broad range of drugs: evidence for a provisional safety margin in drug development. Cardiovasc. Res. 58:32-45, Sanguinetti M C, Tristani-Firouzi M. 2006; hERG potassium channels and cardiac arrhythmia. Nature 440:463-469, Webster R, Leishman D, Walker D. 2002; Towards a drug concentration effect relationship for QT prolongation and torsades de pointes. Curr. Opin. Drug Discov. Devel. 5:116-26).
Background: hERG is a cardiac potassium channel; its block is linked to QT prolongation.

The next data set concerns the target human TLR7 (Homo sapiens (Human), UniProt Q9NYK1). The data set can be described thus: HEK293-Blue-hTLR-7 cells assay. The data set is classed as cell-based. The note with it: HEK293-Blue-hTLR7 cells, R848 stimulation, 20 hrs, SEAP reporter; read-out: HEK/hTLR7 IC50. A digest of the protocol:
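HEK293-Blue cells stably expressing hTLR7 with NF-κB/AP-1-driven SEAP reporter, incubated 20 h at 37 °C with serially diluted compound (1% DMSO) plus R848 agonist (10 μL of 20 μM stock). Supernatant SEAP measured with QUANTI-Blue after 2 h at 37 °C, absorbance 620-655 nm; antagonism as reduced reporter.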

Some results are limits rather than exact numbers.

Sequence of hERG channel (Q12809 whole entry): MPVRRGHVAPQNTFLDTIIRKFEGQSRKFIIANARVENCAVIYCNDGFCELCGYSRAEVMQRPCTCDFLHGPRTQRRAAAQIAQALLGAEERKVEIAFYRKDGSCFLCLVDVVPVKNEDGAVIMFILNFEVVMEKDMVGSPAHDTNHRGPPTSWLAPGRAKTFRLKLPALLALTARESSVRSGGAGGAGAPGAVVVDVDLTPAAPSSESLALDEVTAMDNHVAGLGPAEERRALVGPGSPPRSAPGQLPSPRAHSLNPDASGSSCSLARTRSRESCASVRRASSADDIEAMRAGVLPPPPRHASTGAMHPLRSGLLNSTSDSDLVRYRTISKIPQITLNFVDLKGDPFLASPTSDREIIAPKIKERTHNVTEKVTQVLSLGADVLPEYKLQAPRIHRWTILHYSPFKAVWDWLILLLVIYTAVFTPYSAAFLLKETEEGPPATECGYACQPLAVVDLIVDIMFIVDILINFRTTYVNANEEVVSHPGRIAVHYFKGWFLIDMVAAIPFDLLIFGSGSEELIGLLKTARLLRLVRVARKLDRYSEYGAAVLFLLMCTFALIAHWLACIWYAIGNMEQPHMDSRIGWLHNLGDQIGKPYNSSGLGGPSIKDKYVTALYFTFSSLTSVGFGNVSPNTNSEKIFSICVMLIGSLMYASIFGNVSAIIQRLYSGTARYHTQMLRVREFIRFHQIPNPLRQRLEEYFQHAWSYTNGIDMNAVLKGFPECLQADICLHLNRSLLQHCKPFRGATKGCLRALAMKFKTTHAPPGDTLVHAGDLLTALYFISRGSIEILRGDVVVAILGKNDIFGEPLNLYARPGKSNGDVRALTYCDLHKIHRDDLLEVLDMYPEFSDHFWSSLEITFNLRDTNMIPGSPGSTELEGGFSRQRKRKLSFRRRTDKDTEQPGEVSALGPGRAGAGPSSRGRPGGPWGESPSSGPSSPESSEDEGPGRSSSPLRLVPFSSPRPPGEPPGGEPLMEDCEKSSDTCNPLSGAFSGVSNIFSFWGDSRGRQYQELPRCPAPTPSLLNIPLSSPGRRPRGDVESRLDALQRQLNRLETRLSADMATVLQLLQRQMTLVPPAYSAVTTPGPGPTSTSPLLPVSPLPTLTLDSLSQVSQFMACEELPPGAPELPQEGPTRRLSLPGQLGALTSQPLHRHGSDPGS
Sequence of human TLR7 (Q9NYK1 27-1049): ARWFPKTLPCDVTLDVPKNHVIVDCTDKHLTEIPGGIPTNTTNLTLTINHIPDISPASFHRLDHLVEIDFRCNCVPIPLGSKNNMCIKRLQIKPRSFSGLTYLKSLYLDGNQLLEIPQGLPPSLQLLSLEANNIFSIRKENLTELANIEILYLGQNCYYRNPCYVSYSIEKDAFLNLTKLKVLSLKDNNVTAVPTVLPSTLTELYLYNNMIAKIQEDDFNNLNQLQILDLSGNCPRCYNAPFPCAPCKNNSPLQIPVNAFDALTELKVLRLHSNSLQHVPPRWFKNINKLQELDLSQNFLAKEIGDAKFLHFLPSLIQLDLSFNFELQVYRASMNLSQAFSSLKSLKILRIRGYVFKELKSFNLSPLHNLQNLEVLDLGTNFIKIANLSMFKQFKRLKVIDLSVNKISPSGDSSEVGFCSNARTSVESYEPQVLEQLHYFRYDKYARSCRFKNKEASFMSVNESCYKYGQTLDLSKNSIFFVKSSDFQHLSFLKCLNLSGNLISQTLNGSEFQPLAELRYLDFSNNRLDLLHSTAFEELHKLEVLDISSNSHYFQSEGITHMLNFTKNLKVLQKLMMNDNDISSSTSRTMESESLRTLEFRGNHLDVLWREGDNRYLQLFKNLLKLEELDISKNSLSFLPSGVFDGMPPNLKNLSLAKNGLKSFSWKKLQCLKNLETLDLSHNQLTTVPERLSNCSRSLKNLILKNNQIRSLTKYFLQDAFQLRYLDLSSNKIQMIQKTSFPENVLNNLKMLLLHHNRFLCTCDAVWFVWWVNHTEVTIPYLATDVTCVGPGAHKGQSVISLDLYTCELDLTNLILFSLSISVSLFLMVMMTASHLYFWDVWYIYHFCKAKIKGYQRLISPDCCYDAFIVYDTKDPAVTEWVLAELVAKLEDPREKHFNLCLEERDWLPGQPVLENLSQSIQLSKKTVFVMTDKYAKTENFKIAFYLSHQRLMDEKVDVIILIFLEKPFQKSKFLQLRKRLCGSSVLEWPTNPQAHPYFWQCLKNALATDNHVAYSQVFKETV

As a reminder, the IC20 is the concentration at which the effect reaches the 20% level. High values mean a need for much substance, low ones an effect from little substance. Turning to `[2H]c1ccc2c(N3C[C@@H]4C[C@H](N5CCC(N(C)C)CC5)CN4[C@H](C)C3)ccc(C#N)c2n1` [Example 20, 5-[(4R,7S,8aS)-7-[4-(dimethylamino)-1-piperidyl]-4-methyl-3,4,6,7,8,8a-hexahydro-1H-pyrrolo[1,2-a]pyrazin-2-yl]-2-deuterio-quinoline-8-carbonitrile], the figures for the IC50 against hERG channel and at human TLR7 were more than 20 µM and 0.0189 µM, respectively. This compound also returned an IC20 at hERG channel of more than 10 µM.
For `C[C@@H]1CN(c2ccc(C#N)c3ncccc23)C[C@@H]2C[C@@H](Nc3ccc4c(n3)CCNC4)CN21` [Example 1, 5-[(4R,7R,8aS)-4-methyl-7-(5,6,7,8-tetrahydro-1,6-naphthyridin-2-ylamino)-3,4,6,7,8,8a-hexahydro-1H-pyrrolo[1,2-a]pyrazin-2-yl]quinoline-8-carbonitrile], in that order: more than 20 µM, 0.0161 µM and more than 10 µM.
At hERG channel, `C[C@@H]1CN(c2ccc(C#N)c3ncccc23)C[C@@H]2C[C@@H](Nc3ccc4c(n3)CNCC4)CN21` [Example 3, 5-[(4R,7R,8aS)-4-methyl-7-(5,6,7,8-tetrahydro-1,7-naphthyridin-2-ylamino)-3,4,6,7,8,8a-hexahydro-1H-pyrrolo[1,2-a]pyrazin-2-yl]quinoline-8-carbonitrile] registered an IC50 of more than 20 µM and an IC20 of more than 10 µM. Besides, on human TLR7, the IC50 was 0.0387 µM.
Take `C[C@@H]1CN(c2ccc(C#N)c3ncccc23)C[C@@H]2C[C@@H](Nc3cc4c(cn3)CCNC4)CN21` [Example 2, 5-[(4R,7R,8aS)-4-methyl-7-(5,6,7,8-tetrahydro-2,6-naphthyridin-3-ylamino)-3,4,6,7,8,8a-hexahydro-1H-pyrrolo[1,2-a]pyrazin-2-yl]quinoline-8-carbonitrile]: on hERG channel, the IC50 was more than 20 µM and the IC20 was more than 10 µM. For the same compound, the IC50 on human TLR7 was determined as 0.0405 µM.
At hERG channel, `[2H]c1ccc2c(N3C[C@@H]4C[C@H](N5CCNCC5)CN4[C@H](C)C3)ccc(C#N)c2n1` [Example 15, 5-[(4R,7S,8aS)-4-methyl-7-piperazin-1-yl-3,4,6,7,8,8a-hexahydro-1H-pyrrolo[1,2-a]pyrazin-2-yl]-2-deuterio-quinoline-8-carbonitrile] had an IC50 of more than 20 µM and an IC20 of more than 10 µM. Moreover, on human TLR7, the IC50 came out at 0.0129 µM.

The record behind these values is patent publication US12486273B2 (Hoffmann-La Roche Inc., priority 2019, dated 2025).
